# Tests used:
# HeLa cells [1] = test: Protein level of GFP-Sp1 constructs in HeLa cells (western blot); assay type: cell-based; conditions: equal amount of plasmids
# Protocol: (§1) HeLa cells and mouse embryonic fibroblasts (MEFs) were cultured in DMEM containing 10% of FBS, 100μg/ml streptomycin sulfate and 100 units/ml penicillin G sodium at 37°C, 5% CO2. For transfection of GFP-Sp1, GFP-Sp1-T739A, GFP-Sp1-T739D, GFP-Sp1 (1-740), GFP-Sp1-4A, GFP-Sp1-4D, HA-Sp1, HA-Sp1-4A (S720A, T723A, T737A and T739A), HA-Sp1-4D (S720D, T723D, T737D and T739D), pGL2, pGL2-p21, Sp1 shRNA, or Pin1 shRNA, 2 μg of plasmids was incubated with 2 μl of Lipofectamine in 200 μl of OPTI-MEM for 30 min in room temperature. After incubation, the mixture of plasmids and Lipofectamine in OPTI-MEM was added into 2 ml of OPTI-MEM. The cells were incubated with the mixture of plasmids and Lipofectamine for 6 h. The cells were then incubated in fresh Dulbecco's modified Eagle's medium (DMEM) for 18 or 36 h. The cells were collected for immunoprecipitation or immunoblotting.
# Cell lysates or immunoprecipitation samples were fractionated by sodium dodecyl sulfate-polyacrylamide gel electrophoresis (SDS-PAGE) and transferred to polyvinylidene fluoride (PVDF) membrane using a transfer apparatus according to the manufacturer's protocols (Bio-Rad). After incubation with 3% non-fat milk or 2% bovine serum albumin in Tris-buffered Saline with Tween 20 buffer (TBST buffer, 10 mM Tris-HCl pH 8.0, 150 mM NaCl and 0.5% Tween 20) for 1 h, membranes were incubated with antibodies at 4°C overnight. […]
# RNF4 = RNF4 co-immunoprecipitation with GFP-Sp1 constructs; assay type: binding; conditions: HeLa, anti-GFP immunoprecipitation, vs full-length Sp1 (1–785)
# Protocol: Cell lysates were prepared by using mRIPA buffer (50 mM Tris-HCl, pH 7.8, 150 mM NaCl, 5 mM ethylenediaminetetraacetic acid (EDTA), 0.1% Triton-X100, 0.05% NP-40). The lysates were incubated with anti-Sp1 (1:500), anti-CDK1 (1:200), anti-Pin1 (1:250), anti-HA tag (1:250), or anti-GFP tag (1:200) antibodies at 4°C for 1 h. After 1 h incubation, the mixture was incubated with Protein A or G Sepharose agarose beads at 4°C for 1 h. The beads were collected and washed three times by mRIPA buffer. The beads were added 2X electrophoresis sample buffer and analysed by immunoblotting.
# [2] = system: Sp1-binding probe of p21^WAF1/CIP1 promoter; test: DNA affinity precipitation assay (DAPA); conditions: mitotic extract of HeLa cells, 4°C, 1 h, three independent experiments
# Protocol: Cell lysate incubated with 1 μg of binding probes in 500 μl binding of buffer (2 mM MgCl2, 60 mM KCl, 20 mM Tris-HCl pH 7.8, 5% glycerol, 0.5 mM EDTA and 0.02% NP-40). After incubation for 1 h at 4°C, the mixture was incubated with 30 μl of streptavidin-agarose beads (GE Healthcare Life Sciences) for 1 h at 4°C. The mixture was washed three times by binding buffer. The proteins in the beads were eluted by 2X sample buffer and analysed by SDS-PAGE and immunoblotting. The Sp1-binding probe 5′-[…]-3′, localized from −82 to −50 bp within the promoter of p21^WAF1/CIP1, was biotinylated at 5′ termini and then annealed with complementary strands.
# p21^CIP/WAP = p21^CIP/WAP luciferase activity assay; assay type: cell-based; conditions: HeLa, vs GFP-Sp1 (1–785)
# Protocol: as §1
# HeLa cells [3] = test: Sp1 localisation on chromosomes during mitosis; assay type: cell-based; conditions: nocodazole 16 h
# Protocol: The cells were fixed with 4% paraformaldehyde (Sigma-Aldrich) in PBS according to a method described previously ([3]). Immunostaining was conducted with primary antibodies such as anti-Sp1, anti-GFP tag (Santa Cruz Biotechnology, Santa Cruz, CA), or anti-Pin1 (Calbiochem, San Diego, CA) antibodies. The cells were then treated with Alexa Fluor 488-conjugated goat anti-mouse or rabbit immunoglobulin G (IgG) and Alexa Fluor 568-conjugated goat anti-mouse or rabbit IgG polyclonal antibodies (Jackson ImmunoResearch Laboratories Inc., West Grove, PA). Finally, the cells were mounted in 90% glycerol containing 4'-6-diamidino-2-phenylindole (DAPI) (Invitrogen), and examined using a confocal laser-scanning microscope (FluoView^TM FV 1000; Olympus, Melville, NY) or immunofluorescence microscope (Personal DV Applied Precision, Issaquah, WA). The images were analysed with softWoRx software (Applied Precision Inc.).
# HeLa cells [4] = test: Flow cytometry with PI staining (cell cycle); assay type: cell-based; conditions: nocodazole 16 h
# Protocol: The cells washed by cold PBS and then fixed in 70% alcohol or 4% paraformaldehyde at 4°C for 2 h. After fixation, the cells washed by cold PBS and treated with 0.1% TritonX-100, 10μg/ml RNase and 50 μg/ml propidium iodide for 1 h. The cells were analysed by flow cytometer (Cell Lab Quanta™ SC; Beckman Coulter or FACSCalibur; BD Biosciences).
# Pin1 = test: Isothermal titration calorimetry binding of Sp1 peptides to Pin1; conditions: 25°C
# Protocol: (§2) Additionally, two other point mutants of Pin1, K63A and C113A, which are PPIase-activity-deficient, were generated and used in the crystallographic experiments ([42]). For the crystallization and the thermodynamic parameters of Pin1 and Sp1 peptide binding analysis, protein expression and crystallization of Pin1 was performed in slightly modified as described previously ([41]). In brief, the gene for Pin1 was cloned into pET28a with an N-terminal His12-tag and a thrombin cleavage site. R14A, R14A/K63A and R14A/C113A mutants of Pin1 were generated using the PCR-based QuikChange site-directed mutagenesis kit (Agilent). The correct construct was transformed into E. coli BL-21 (DE3) competent cells for protein expression. Transformed BL21 (DE3) bacteria were grown in Luria Bertani (LB) medium containing […] kanamycin at 30°C. Bacteria were induced with 1 mM isopropyl β-D-thiogalactoside (IPTG) overnight at 20°C. Pin1 proteins were purified by Ni^2+-nitrilotriacetic acid affinity chromatography, digested with thrombin and further purified by second run of Ni^2+-nitrilotriacetic acid affinity chromatography. The protein was prepared at 10–20 mg/ml in 10mM HEPES pH 7.5 containing 100 mM NaCl and 1 mM DTT for crystallization. Crystals were grown from a drop composed of 1 ml of protein solution and 1 ml of reservoir solution consisting of 2.0–2.5 M (NH4)2SO4, 1–2% (w/v) PEG 400 and 1–2 mM DTT in 0.1M HEPES buffer pH 7.5 equilibrated at 4°C against 0.5 ml of reservoir solution using the hanging-drop vapor-diffusion method. Crystals of Pin1 in complex with Sp1 peptides were obtained in co-crystallization experiments with the Pin1 protein pre-mixed with 10-fold Sp1 peptide and incubated at 4°C for 4 h before crystallization.
# Thermodynamic parameters of Pin1 and Sp1 peptide binding were determined using a Micro-Cal iTC200 (GE Healthcare Life Sciences). All samples were filtered with […] cutoff filters (Millipore). The buffer for Pin1 and Sp1 peptide solutions consisted of 10 mM HEPES pH 7.5, 100 mM NaCl and 1 mM DTT. A […] solution of Sp1 peptide was directly titrated into a solution of […] Pin1 in […] aliquots. The experiments were performed at 25°C. Data were then analysed using the software origin.
# To confirm that Pin1 indeed affects the C-terminal conformation of Sp1, Pin1 was purified and oligopeptides of the region 735–745 of Sp1, with or without phosphate at Thr739, were synthesized for ITC and X-ray crystallography experiments (Figure 3). […] Furthermore, two other point mutants of Pin1, K63A and C113A, which are PPIase-activity-deficient, were generated and used in the crystallographic experiments ([42]).
# Figure 3. Pin1 recruitment alters the conformation of C-terminal Sp1. (A) The binding analyses of Thr739-Sp1 (left panel) and Thr739(p)-Sp1 (right panel) peptides to Pin1 were determined by ITC. Representative plots from an ITC experiment are shown with raw data in the upper panel and curve fit in the lower panel. The Thr739-Sp1 or Thr739(p)-Sp1 peptides were titrated into the reaction cell containing Pin1 protein. […] The 2Fo–Fc electron density is shown in blue color, contoured at 1σ. […] Overall structure (i) and a close-up view of the active-site pocket of Pin1 (ii). […] Positive charges on the electrostatic surfaces are drawn in blue and negative charges in red.
# Pin1 R14A mutant = test: X-ray crystallography of Sp1 peptide with Pin1 R14A; assay type: binding; conditions: co-crystallization, Pin1 pre-mixed with 10-fold peptide, 4°C for 4 h
# Protocol: as §2, with “Crystals were grown from a drop composed of 1 ml of protein solution and 1 ml of reservoir solution consisting of 2.0–2.5 M (NH4)2SO4, 1–2% (w/v) PEG 400 and 1–2 mM DTT in 0.1M HEPES buffer pH 7.5 equilibrated at 4°C against 0.5 ml of reservoir solution using the hanging-drop vapor-diffusion method. Crystals of Pin1 in complex with Sp1 peptides were obtained in co-crystallization experiments with the Pin1 protein pre-mixed with 10-fold Sp1 peptide and incubated at 4°C for 4 h before crystallization.” left out
# (§3) All crystals were flash-cooled to 100 K in a stream of cold nitrogen prior to data collection. […] The electron density was calculated by Refmac5 ([43]). […]
# Pin1 R14A/C113A mutant = test: X-ray crystallography of Sp1 peptide with Pin1 R14A/C113A; assay type: binding; conditions: ablated isomerase activity; co-crystallization, 10-fold peptide, 4°C for 4 h
# Protocol: as §2, with “Crystals were grown from a drop composed of 1 ml of protein solution and 1 ml of reservoir solution consisting of 2.0–2.5 M (NH4)2SO4, 1–2% (w/v) PEG 400 and 1–2 mM DTT in 0.1M HEPES buffer pH 7.5 equilibrated at 4°C against 0.5 ml of reservoir solution using the hanging-drop vapor-diffusion method. Crystals of Pin1 in complex with Sp1 peptides were obtained in co-crystallization experiments with the Pin1 protein pre-mixed with 10-fold Sp1 peptide and incubated at 4°C for 4 h before crystallization.” left out
# as §3
substance,measurement,setting,value
GFP-Sp1 (1–740): GFP-Sp1 lacking the C-terminal end (741–785),protein level,HeLa cells [1],higher than that of GFP-Sp1 (1–785)
same,interaction with RNF4,RNF4,decreased interaction between RNF4 and GFP-Sp1 (1–740)
same,DNA-binding activity to the p21^CIP/WAP promoter,[2],increased the DNA-binding activity of Sp1 during mitosis
same,transcriptional activity of p21^CIP/WAP,p21^CIP/WAP,increased the transcriptional activity of p21^CIP/WAP
"Sp1-4D: Sp1 mutant S720D, T723D, T737D and T739D",DNA-binding activity to the p21^CIP/WAP promoter,[2],decreased the DNA-binding activity of Sp1 to the p21^CIP/WAP promoter
same,removal from chromosomes during mitosis,HeLa cells [3],completely removed from the chromosomes
same,cells entered mitosis,HeLa cells [4],75%
"Thr739(p)-Sp1 peptide: oligopeptide of the region 735–745 of Sp1, with phosphate at Thr739",Ka,"Pin1; ITC curve fit, 10 mM HEPES pH 7.5, 100 mM NaCl, 1 mM DTT",7.4 ± 1.4 × 10^3 M^−1
same,N (stoichiometry of bound Thr739(p)-Sp1 peptide per Pin1 protein),"Pin1; ITC curve fit, pH 7.5",0.93 ± 0.25
same,ΔH,"Pin1; ITC curve fit, pH 7.5",-6.8 ± 2.2 kcal/mol
same,ΔS,"Pin1; ITC curve fit, pH 7.5",-5.0 cal/mol/K
same,interaction with Pin1,"Pin1; ITC, 10 mM HEPES pH 7.5, 100 mM NaCl, 1 mM DTT",Pin1 could interact with the Thr739(p)-Sp1 peptide
same,configurations of electron density map of bound peptide,Pin1 R14A mutant,one configuration
same,configurations of electron density map of bound peptide,Pin1 R14A/C113A mutant,two configurations
